# Assay results from US8541596B2, “Inhibitors” (Probiodrug AG, priority 2010, dated 2013).
# Biological target: hQC (Homo sapiens (Human), UniProt Q16769)
# Test: QC inhibitor assay (fluorometric/spectrophotometric QC activity assay with inhibitor added)
# Assay type: biochemical
# Conditions: bound
# Protocol: All measurements were performed with a BioAssay Reader HTS-7000Plus for microplates (Perkin Elmer) at 30° C. QC activity was evaluated fluorometrically using H-Gln-βNA. The samples consisted of 0.2 mM fluorogenic substrate, 0.25 U pyroglutamyl aminopeptidase (Unizyme, Høsholm, Denmark) in 0.2 M Tris/HCl, pH 8.0 containing 20 mM EDTA and an appropriately diluted aliquot of QC in a final volume of 250 μl. Excitation/emission wavelengths were 320/410 nm. The assay reactions were initiated by addition of glutaminyl cyclase. QC activity was determined from a standard curve of /3-naphthylamine under assay conditions. One unit is defined as the amount of QC catalyzing the formation of 1 μmol pGlu-βNA from H-Gln-/3NA per minute under the described conditions.
# In a second fluorometric assay, QC was activity determined using H-Gln-AMC as substrate. Reactions were carried out at 30° C. utilizing the NOVOStar reader for microplates (BMG labtechnologies). The samples consisted of varying concentrations of the fluorogenic substrate, 0.1 U pyroglutamyl aminopeptidase (Qiagen) in 0.05 M Tris/HCl, pH 8.0 containing 5 mM EDTA and an appropriately diluted aliquot of QC in a final volume of 250 μl. Excitation/emission wavelengths were 380/460 nm. The assay reactions were initiated by addition of glutaminyl cyclase. QC activity was determined from a standard curve of 7-amino-4-methylcoumarin under assay conditions. The kinetic data were evaluated using GraFit software.
# This novel assay was used to determine the kinetic parameters for most of the QC substrates. […] Samples consisted of the respective QC substrate, 0.3 mM NADH, 14 mM a-Ketoglutaric acid and 30 U/ml glutamate dehydrogenase in a final volume of 250 μl. Reactions were started by addition of QC and persued by monitoring of the decrease in absorbance at 340 nm for 8-15 min.
# The initial velocities were evaluated and the enzymatic activity was determined from a standard curve of ammonia under assay conditions. All samples were measured at 30° C., using either the […]uor Plus or the Sunrise (both from TECAN) reader for microplates. Kinetic data was evaluated using GraFit software.
# For inhibitor testing, the sample composition was the same as described above, except for the putative inhibitory compound added. For a rapid test of QC-inhibition, samples contained 4 mM of the respective inhibitor and a substrate concentration at 1 KM. For detailed investigations of the inhibition and determination of K,-values, influence of the inhibitor on the auxiliary enzymes was investigated first. […] The inhibitory constant was evaluated by fitting the set of progress curves to the general equation for competitive inhibition using GraFit software.
# Chain of hQC (Q16769 29-361): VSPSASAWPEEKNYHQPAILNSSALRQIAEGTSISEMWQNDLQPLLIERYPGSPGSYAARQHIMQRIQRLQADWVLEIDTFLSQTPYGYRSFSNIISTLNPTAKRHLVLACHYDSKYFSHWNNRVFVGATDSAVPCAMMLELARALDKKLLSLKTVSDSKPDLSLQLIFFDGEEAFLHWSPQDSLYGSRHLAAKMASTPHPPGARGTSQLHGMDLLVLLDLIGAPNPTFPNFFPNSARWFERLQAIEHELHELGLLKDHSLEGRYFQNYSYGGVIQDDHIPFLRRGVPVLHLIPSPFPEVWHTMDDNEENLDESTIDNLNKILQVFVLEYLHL
row,SMILES,IC50
1,"COc1ccc(CN(Cc2ccc3nsnc3c2)c2ccc3[nH]cnc3c2)cc1 [Example 76, N-(4-Methoxybenzyl)-N-((benzo[c][1,2,5]thiadiazol-6-yl)methyl)-1H-benzo[d]imidazol-5-amine]",< 10 µM
2,"CN(C)c1ccc(CN(Cc2ccc3nsnc3c2)c2ccc3[nH]cnc3c2)cc1 [Example 81, N-(4-(Dimethylamino)benzyl)-N-((benzo[c][1,2,5]thiadiazol-5-yl)methyl)-1H-benzo[d]imidazol-5-amine]",< 10 µM
3,"CCc1ccc(CN(Cc2ccc(C#N)cc2)c2ccc3[nH]cnc3c2)cc1 [Example 72, N-(4-Cyanobenzyl)-N-(4-ethylbenzyl)-1H-benzo[d]imidazol-5-amine]",< 10 µM
4,"N#Cc1ccc(CN(Cc2ccc(C#N)cc2)c2ccc3[nH]cnc3c2)cc1 [Example 19, N,N-Bis(4-cyanobenzyl)-1H-benzo[d]imidazol-5-amine]",< 10 µM
5,"CCc1ccc(CN(Cc2cc(F)c(F)c(F)c2)c2ccc3[nH]cnc3c2)cc1 [Example 71, N-(3,4,5-Trifluorobenzyl)-N-(4-ethylbenzyl)-1H-benzo[d]imidazol-5-amine]",< 10 µM
6,"CCc1ccc(CN(Cc2ccc(SC)cc2)c2ccc3[nH]cnc3c2)cc1 [Example 69, N-(4-(Methylthio)benzyl)-N-(4-ethylbenzyl)-1H-benzo[d]imidazol-5-amine]",< 10 µM
7,"CSc1ccc(CN(Cc2c(F)c(F)c(C)c(F)c2F)c2ccc3[nH]cnc3c2)cc1 [Example 62, N-(2,3,5,6-Tetrafluoro-4-methylbenzyl)-N-(4-(methylthio)benzyl)-1H-benzo[d]imidazol-5-amine]",< 10 µM
8,"c1ccc(CN(Cc2ccccc2)c2ccc3[nH]cnc3c2)cc1 [Example 10, N,N-Dibenzyl-1H-benzo[d]imidazol-5-amine]",< 10 µM
9,"COc1ccc(CN(CCCc2ccccc2)c2ccc3nc[nH]c3c2)cc1 [Example 89, N-(4-Methoxybenzyl)-N-(3-phenylpropyl)-3H-benzo[d]imidazol-5-amine]",< 10 µM
10,"Cc1c(F)c(F)c(CNc2ccc3[nH]cnc3c2)c(F)c1F [Example 44, N-(2,3,5,6-Tetrafluoro-4-methylbenzyl)-1H-benzo[d]imidazol-5-amine]",< 10 µM
11,"CSc1ccc(CN(Cc2cc(F)c(F)c(F)c2)c2ccc3[nH]cnc3c2)cc1 [Example 60, N-(3,4,5-Trifluorobenzyl)-N-(4-(methylthio)benzyl)-1H-benzo[d]imidazol-5-amine]",< 10 µM
12,"CCc1ccc(CN(Cc2nc3ccccc3s2)c2ccc3[nH]cnc3c2)cc1 [Example 74, N-(4-Ethylbenzyl)-N-((benzo[d]thiazol-2-yl)methyl)-1H-benzo[d]imidazol-5-amine]",< 10 µM

# Now from value to molecule:
row,IC50,SMILES
1,< 10 µM,"CSc1ccc(CNc2ccc3[nH]cnc3c2)cc1 [Example 11, N-(4-(Methylthio)benzyl)-1H-benzo[d]imidazol-5-amine]"
2,< 10 µM,"c1ccc2sc(CN(Cc3nc4ccccc4s3)c3ccc4[nH]cnc4c3)nc2c1 [Example 34, N,N-Bis((benzo[d]thiazol-2-yl)methyl)-1H-benzo[d]imidazol-5-amine]"
3,< 10 µM,"Clc1ccc2scc(CNc3ccc4[nH]cnc4c3)c2c1 [Example 49, N-((5-Chlorobenzo[b]thiophen-3-yl)methyl)-1H-benzo[d]imidazol-5-amine]"
4,< 10 µM,"CSc1ccc(CN(Cc2nc3ccccc3s2)c2ccc3[nH]cnc3c2)cc1 [Example 66, N-(4-(Methylthio)benzyl)-N-((benzo[d]thiazol-2-yl)methyl)-1H-benzo[d]imidazol-5-amine]"
5,< 10 µM,"Cc1ccc2cc(CN(Cc3ccc4nc(C)ccc4c3)c3ccc4[nH]cnc4c3)ccc2n1 [Example 37, N,N-Bis((2-methylquinolin-6-yl)methyl)-1H-benzo[d]imidazol-5-amine]"
6,< 10 µM,"CCCCN(Cc1ccc(SC)cc1)c1ccc2[nH]cnc2c1 [Example 83, N-(4-(Methylthio)benzyl)-N-butyl-1H-benzo[d]imidazol-5-amine]"
7,< 10 µM,"Cc1ccc(CN(Cc2ccc(N(C)C)cc2)c2ccc3[nH]cnc3c2)cc1 [Example 78, N-(4-(Dimethylamino)benzyl)-N-(4-methylbenzyl)-1H-benzo[d]imidazol-5-amine]"
8,< 10 µM,"Brc1ccc(CN(Cc2ccc(Br)cc2)c2ccc3[nH]cnc3c2)cc1 [Example 27, N,N-Bis(4-bromobenzyl)-1H-benzo[d]imidazol-5-amine]"
9,< 10 µM,"CSc1ccc(CN(Cc2cc(F)cc(F)c2)c2ccc3[nH]cnc3c2)cc1 [Example 59, N-(3,5-Difluorobenzyl)-N-(4-(methylthio)benzyl)-1H-benzo[d]imidazol-5-amine]"
10,< 10 µM,"COc1ccc(CN(Cc2ccccc2)c2ccc3nc[nH]c3c2)cc1 [Example 86, N-(4-Methoxybenzyl)-N-benzyl-3H-benzo[d]imidazol-5-amine]"
